In patent publication US4997835A, “Substituted 2-acylpyridine-α-(N)-hetarlyhydrazones and medicaments containing the same” (priority 1987, dated 1991) one finds MIC, IC50 and IC90 data, which are given here for 25 molecules.

Each structure is given as a SMILES string. Converted amounts (≈) assume the structure as drawn. Like-named read-outs stand apart in the source and are kept apart here.

Format in all cases: cell-based
Experiment [1] concerns Mycobacterium lufu. The experiment in a line: Minimum inhibiting concentration, M. lufu L 209. The note with it: Mycobacterium lufu.
Experiment [2] concerns Mycobacterium tuberculosis H 37 RV. The experiment in a line: Minimum inhibiting concentration, M. tuberculosis H37RV. The note with it: Mycobacterium tuberculosis; M. tub. H37RV. As to the method: The minimum inhibiting concentration of the commercially available and inventive substances given in Table 2 was determined according to the known standard process ("Methods for sensitivity testing of bacterial infectious germs", DIN 58940, part 5).
The determination was carried out on the following bacterial cultures:
2. Mycobacterium tuberculosis H 37 RV, FIB 2-85 JS
For culturing the bacterial cultures use was made of nutrient substrates according to Gottsacker and Lowenstein Jensen and culture media according to Lockemann or Dubos-Davis (cf. "Detection processes for mycobacteria from test material, III, culture medium formulations for culturing tuberculosis bacteria", 1978, Publisher: Deutsches Zentralkomitee zur Bekampfung der Tuberculose, Poppenhusenstrasse 14c, 2000 Hamburg 60).
In each case 5×10^-3 to 5×10^-5 mg, based on the wet weight, of the mycobacterial strains were incubated in 2 ml of culture fluid (Lockemann +0.5 wt/vol. % bovine serum albumen fraction 5) at 31° C. with a graded concentration of the particular inhibitor (dilution series). The culture tubes were read off after 8 to 15 days, as a function of the bacterial strain.
The MIC is the inhibitor concentration in μMol/l at which no propagation of the sewn cells is observed.

Experiment [3] relates to Mycobacterium smegmatis ATCC 607. The experiment in a line: Minimum inhibiting concentration, M. smegmatis ATCC 607. The note with it: Mycolicibacterium smegmatis.
Experiment [4] deals with Mycobacterium marinum SN 1254. Nature of the experiment: Minimum inhibiting concentration, M. marinum SN1254.
The test system of experiment [5] is Indochina W-2 (parasitic malaria strain). Nature of the experiment: Growth of malaria strain Indochina W-2. The note with it: for IC50: read-out: I50; for IC90: read-out: I90. An excerpt: (§1) Determination of the semimaximum inhibiting concentration (I50) of typical representatives of the inventive compounds for the growth of parasitic malaria strains:
(§2) The determination took place according to the standard process (cf. WHO determination process).
(§3) The process according to Example 35 was repeated with the difference that the semimaximum inhibiting concentration of combinations of the inventive compound PH 22 with (2), (3) inhibitors of dihydrofolic acid reductase, (4) inhibitors of folate synthase and dihydrofolic acid reductase and (5), (6) inhibitors of DNA-synthesis were determined.

Experiment [6] concerns Sierra Leone D-6 (parasitic malaria strain). The experiment in a line: Growth of malaria strain Sierra Leone D-6. The note with it: for IC50: read-out: I50; for IC90: read-out: I90.
Description: as §1, §2, §3

Experiment [7] has as its system Mycobacterium avium Patient Strain (Birk). Nature of the experiment: Minimum inhibiting concentration, M. avium Patient Strain (Birk). To be noted: Mycobacterium avium; M. avium Patient str.; read-out: Minimum inhibiting concentration.
Where [8] appears, read: ATCC607, M. smegm. ATCC 607, read-out: Minimum inhibiting concentration.
[9] abbreviates: M. marin. SN1254, read-out: Minimum inhibiting concentration.

As for `C(=NNc1nncc2ccccc12)c1ccccn1` [PH 22-1, pyridine-2-aldehyde-1'-phthalazinylhydrazone], the MIC came to 12.1 µM (≈ 3.02 µg/mL) in experiment [1], 49 µM (≈ 12.2 µg/mL) in experiment [2] and 49 µM (≈ 12.2 µg/mL) in experiment [3] (setting [8]).

For the molecule `CC(=O)Nc1ccnc(C=NNc2nncc3ccccc23)c1` [PH 22-18, 4-acetylaminopyridine-2-aldehyde-1'-phthalazinylhydrazone], the MIC was determined as 22.9 µM (≈ 7.01 µg/mL) in experiment [1], 46 µM (≈ 14.1 µg/mL) in experiment [2], 92 µM (≈ 28.2 µg/mL) in experiment [4] (setting [9]) and 65 µM (≈ 19.9 µg/mL) in experiment [3] (setting [8]).

As to `Nc1ccnc(C=NNc2nncc3ccccc23)c1` [PH 22-23, 4-aminopyridine-2-aldehyde-1'-phthalazinylhydrazine], the MIC in experiment [1] was 26.5 µM (≈ 7 µg/mL); in experiment [2] it was 13.3 µM (≈ 3.52 µg/mL); in experiment [4] (setting [9]) it was 38 µM (≈ 10 µg/mL); in experiment [3] (setting [8]), 13.3 µM (≈ 3.52 µg/mL).

For the molecule `CN(N=Cc1ccccn1)c1cc(Cl)ncn1` [PH 22-36, pyridine-2-aldehyde-6'-chloro-4'-pyrimidyl-(N1-methyl)-hydrazone], the MIC in experiment [1] amounted to 5.3 µM (≈ 1.31 µg/mL); in experiment [2], 136 µM (≈ 33.7 µg/mL); in experiment [4] (setting [9]), 119 µM (≈ 29.5 µg/mL).

`C(=NNc1ccccn1)c1nccc2ccccc12` [PH 22-37, isoquinoline-1-aldehyde-2'-pyridyl hydrazone]: the MIC in experiment [1] was determined as 12.1 µM (≈ 3 µg/mL); in experiment [2], 3 µM (≈ 0.745 µg/mL); in experiment [4] (setting [9]) it was 6 µM (≈ 1.49 µg/mL); in experiment [3] (setting [8]), 6 µM (≈ 1.49 µg/mL).

As to `CC(=O)Nc1ccnc(C=NNc2ccccn2)c1` [PH 22-17, 4-acetylamino-pyridine-2-aldehyde-2'-pyridylhydrazone], the MIC in experiment [1] is 94 µM (≈ 24 µg/mL); in experiment [2] it was over 125 µM; in experiment [4] (SN1254, read-out: Minimum inhibiting concentration), over 125 µM; in experiment [3] (ATCC607, read-out: Minimum inhibiting concentration), over 125 µM. Also, the values for the IC50 in experiment [5] and in experiment [6] were 0.5 µM and 0.6 µM, respectively. Also, the results for the IC90 in experiment [5] and in experiment [6] were 2.3 µM and 1.1 µM, respectively.

Consider `CC(=NNc1nncc2ccccc12)c1ccccn1` [PH 22-3, 2-acetylpyridine-1'-phthalazinylhydrazone], for which the MIC in experiment [1] is 6.6 µM (≈ 1.74 µg/mL); in experiment [2], 31 µM (≈ 8.16 µg/mL); in experiment [4] (setting [9]), 22 µM (≈ 5.79 µg/mL); in experiment [3] (setting [8]), 44 µM (≈ 11.6 µg/mL); in experiment [7] it was 53 µM (≈ 14 µg/mL).

As to `CC(=NNc1ncnc2ccccc12)c1ccccn1` [PH 22-34, 2-acetylpyridine-4'-quinazolylhydrazone], the MIC in experiment [1] is under 1 µM; in experiment [2], 12 µM (≈ 3.16 µg/mL); in experiment [4] (setting [9]) it was 64 µM (≈ 16.9 µg/mL).

`C(=NNc1nccc2ccccc12)c1ccccn1` [PH 22-27, pyridine-2-aldehyde-1'-isoquinolylhydrazone]: the MIC in experiment [1] was 6 µM (≈ 1.49 µg/mL); in experiment [2] it was 8.1 µM (≈ 2.01 µg/mL); in experiment [4] (setting [9]), 16.1 µM (≈ 4 µg/mL); in experiment [3] (setting [8]), 12.1 µM (≈ 3 µg/mL).

Turning to `Clc1ccc(NN=Cc2ccccn2)nc1` [PH 22-30, pyridine-2-aldehyde-5'-chloro-2'-pyridylhydrazone], the MIC in experiment [1] was found to be 2.7 µM (≈ 0.628 µg/mL); in experiment [2], 1.3 µM (≈ 0.302 µg/mL); in experiment [4] (setting [9]), 5.4 µM (≈ 1.26 µg/mL); in experiment [7], 13 µM (≈ 3.02 µg/mL).

With `Clc1cccc(NN=Cc2ccccn2)n1` [PH 22-29, pyridine-2-aldehyde-6'-chloro-2'-pyridylhydrazone], the MIC in experiment [1] came to 3.2 µM (≈ 0.745 µg/mL); in experiment [2] it was 1.6 µM (≈ 0.372 µg/mL); in experiment [4] (setting [9]), 6.5 µM (≈ 1.51 µg/mL); in experiment [7] it was 60 µM (≈ 14 µg/mL).

As for `Cc1cccc(C=NNc2ccccn2)n1` [PH 22-10, 6-methyl pyridine-2-aldehyde-pyridylhydrazone], the MIC came to 8.3 µM (≈ 1.76 µg/mL) in experiment [1], 47 µM (≈ 9.98 µg/mL) in experiment [2] and 33 µM (≈ 7 µg/mL) in experiment [3] (setting [8]).

Consider `CC(=O)Nc1ccnc(C(C)=NNc2nncc3ccccc23)c1` [PH 22-20, 4-acetylamino-2-acetylpyridine-1'-phthalazinylhydrazine], for which the MIC in experiment [1] turned out to be 12.5 µM (≈ 4 µg/mL); in experiment [2], 10.9 µM (≈ 3.49 µg/mL); in experiment [4] (setting [9]) it was 88 µM (≈ 28.2 µg/mL); in experiment [3] (setting [8]), 15.6 µM (≈ 5 µg/mL).

Take `Cc1ccnc(C=NNc2nncc3ccccc23)c1` [PH 22-8, 4-methyl-pyridine-2-aldehyde-1'-phthalazinylhydrazone]: the MIC in experiment [1] turned out to be 31 µM (≈ 8.16 µg/mL); in experiment [2] it was 18 µM (≈ 4.74 µg/mL); in experiment [4] (setting [9]), 22 µM (≈ 5.79 µg/mL); in experiment [3] (setting [8]), 44 µM (≈ 11.6 µg/mL).

Take `Cc1cccc(NN=Cc2ccccn2)n1` [PH 22-31, pyridine-2-aldehyde-2'-(6'-methyl)-pyridylhydrazone]: the MIC came to 3.5 µM (≈ 0.743 µg/mL) in experiment [1], 1.8 µM (≈ 0.382 µg/mL) in experiment [2], 8.3 µM (≈ 1.76 µg/mL) in experiment [4] (setting [9]) and 57 µM (≈ 12.1 µg/mL) in experiment [7].

As to `Cc1ccc(C=NNc2ccc3ccccc3n2)nc1` [PH 22-14, 5-methyl-pyridine-2-aldehyde-2'-quinolylhydrazone], the MIC in experiment [1] was determined as 3.8 µM (≈ 0.997 µg/mL); in experiment [2], 1.2 µM (≈ 0.315 µg/mL); in experiment [4] (setting [9]), 5.7 µM (≈ 1.5 µg/mL); in experiment [3] (setting [8]), 9.5 µM (≈ 2.49 µg/mL).

Regarding `Clc1cccc(C=NNc2ccccn2)n1` [PH 22-11, 6-chloropyridine-2-aldehyde-2'-pyridylhydrazone], the MIC in experiment [1] was found to be 43 µM (≈ 10 µg/mL); in experiment [2], 86 µM (≈ 20 µg/mL); in experiment [3] (setting [8]), 56 µM (≈ 13 µg/mL). Besides, the IC50 in experiment [5] stood at 8.9 µM; in experiment [6], 13.1 µM. Further, the IC90 in experiment [5] was determined as 23 µM; in experiment [6], 25.7 µM.

On to `CCc1ccc(C=NNc2nncc3ccccc23)nc1` [PH 22-5, 5-ethylpyridine-2-aldehyde-1'-phthalazinylhydrazone], for which the MIC in experiment [1] stood at 14.5 µM (≈ 4.02 µg/mL); in experiment [2] it was 16.6 µM (≈ 4.6 µg/mL); in experiment [4] (setting [9]), 10.4 µM (≈ 2.88 µg/mL); in experiment [3] (setting [8]) it was 67 µM (≈ 18.6 µg/mL).

Turning to `CCc1ccc(C=NNc2cc(OC)ncn2)nc1` [PH 22-33, 5-ethylpyridine-2-aldehyde-6'-methoxy-4'-pyrimidylhydrazone], the MIC in experiment [1] was determined as 1.5 µM (≈ 0.386 µg/mL); in experiment [2] it was 2.4 µM (≈ 0.618 µg/mL); in experiment [4] (setting [9]) it was 4.9 µM (≈ 1.26 µg/mL).

Take `CC(O)CN(C)c1ccc(NN=Cc2ccccn2)nn1` (centres unmarked) [PH 22-28, pyridine-2-aldehyde-6'-(N-methyl-N-2"-hydroxypropyl)-amino-3'-pyridazinylhydrazone]: the MIC in experiment [1] is 35 µM (≈ 10 µg/mL); in experiment [2], 140 µM (≈ 40.1 µg/mL); in experiment [4] (setting [9]), 70 µM (≈ 20 µg/mL).

Take `Cc1ccc(C=NNc2nncc3ccccc23)nc1` [PH 22-16, 5-methyl-pyridine-2-aldehyde-1'-phthalazinylhydrazone]: the MIC in experiment [1] amounted to 4.8 µM (≈ 1.26 µg/mL); in experiment [2], 1.4 µM (≈ 0.369 µg/mL); in experiment [4] (setting [9]), 76 µM (≈ 20 µg/mL); in experiment [3] (setting [8]) it was 5.7 µM (≈ 1.5 µg/mL).

On to `CC(=O)Nc1ccnc(C=NNc2ccc3ccccc3n2)c1` [PH 22-19, 4-acetylaminopyridine-2-aldehyde-2'-quinolylhydrazone], for which the MIC in experiment [1] turned out to be 32.9 µM (≈ 10 µg/mL); in experiment [2] it was 11.5 µM (≈ 3.51 µg/mL); in experiment [4] (setting [9]) it was 11.5 µM (≈ 3.51 µg/mL); in experiment [3] (setting [8]), 9.8 µM (≈ 2.99 µg/mL).

Consider `CCc1ccc(C=NNc2ccccn2)nc1` [PH 22-13, 5-ethyl-pyridine-2-aldehyde-2'-pyridylhydrazone], for which the MIC in experiment [1] was determined as 53 µM (≈ 12 µg/mL); in experiment [2], 22 µM (≈ 4.98 µg/mL); in experiment [4] (setting [9]), 44 µM (≈ 9.96 µg/mL); in experiment [3] (setting [8]), 22 µM (≈ 4.98 µg/mL).

Take `CC(=NNc1nncc2ccccc12)c1cc(N)ccn1` [PH 22-24, 2-acetyl-4-aminopyridine-1'-phthalazinylhydrazine]: the MIC turned out to be 2.2 µM (≈ 0.612 µg/mL) in experiment [1], 4.5 µM (≈ 1.25 µg/mL) in experiment [2], 18 µM (≈ 5.01 µg/mL) in experiment [4] (setting [9]) and 4.5 µM (≈ 1.25 µg/mL) in experiment [3] (setting [8]).

In the case of `CC(=NNc1cc(Cl)ncn1)c1ccccn1` [PH 22-32], the results for the MIC in experiment [1], in experiment [2] and in experiment [4] (setting [9]) were 1.3 µM (≈ 0.322 µg/mL), 6.1 µM (≈ 1.51 µg/mL) and 28.3 µM (≈ 7.01 µg/mL), respectively.
